Measurements: US20250152647A1, “FORMULATIONS AND METHODS FOR SKIN CARE” (AMILYFE, LLC, priority 2022, published 2025)

Experiment: Preliminary screens of amino acids
Method: In addition to the amino acid combinations described above, several other combinations are tested that include, e.g., Trp and/or Arg to determine if inclusion of these amino acids confers additional dermatological benefits. […] At the outset, the following combinations of amino acids are tested: Ala, Gln, Gly, Ser (combo #1); Ala, Gln, Gly, Ser, Val, Ile (combo #2); Ala, Gln, Gly, Ser, Val; Ala, Gln, Gly, Ser, Ile; Ala, Gln, Gly, Ser, Ile, Val, Trp; Ala, Gln, Gly, Ser, Ile, Val, Arg; and Ala, Gln, Gly, Ser, Ile, Val, Trp, Arg.

Row | SMILES | effect in preliminary screens
1 | N=C(N)NCCC[C@H](N)C(=O)O [Arg, arginine] | positive effects
2 | N[C@@H](Cc1c[nH]c2ccccc12)C(=O)O [Trp, tryptophan] | positive effects
